Measurements from patent US11780851B2, “LRRK2 inhibitors” (H. Lundbeck A/S, priority 2021, dated 2023).

Experiments:
LRRK2 G2019S = target: T1, LRRK2 G2019S (Homo sapiens, UniProt Q5S007, G2019S); test: LRRK2 G2019S kinase activity assay (LanthaScreen TR-FRET); type: biochemical; conditions: 250 pM LRRK2 G2019S, 1.3 mM ATP, 3 h at 30° C.; n≥2 tests
T1 construct: purchased Invitrogen (Life Technologies Corporation)
Description: (§1) LRRK2 kinase activity was measured using a LanthaScreen kinase activity assay available from Invitrogen (Life Technologies Corporation). The assay is a homogeneous time resolved-fluorescence resonance energy transfer (TR-FRET) assay that measures phosphorylation of a fluorescein-labelled peptide substrate Fluorescein-ERM LRRKtide obtainable from Life Technologies Corporation as a result of LRRK2 kinase activity. The phosphorylated peptide is recognized by a terbium-labelled phospho-specific anti-LRRKtide antibody (pLRRKtide antibody), obtainable from Life Technologies Corporation and, subsequently, the phosphorylated LRRKtide can be quantified by the extent of TR-FRET between the terbium donor and fluorescein acceptor. The LRRK2 kinase was obtained from Invitrogen (Life Technologies Corporation) and comprises residue 970 to 2527 of the full length human wild-type LRRK2 kinase, or a similar sequence with the G2019S mutation. As discussed above, this mutation increases the kinase activity relative to the wild type. The kinase reactions were performed in a 20 μL volume in 384-well plates. […] The mixture was further incubated for 30 minutes at RT. […] The measurement was repeated 30 times for fluorescein and 30 times for terbium emission with a 1000 μs time window between repeats. TR-FRET measurements were performed on a Biotek Synergy plate. The TR-FRET signal was calculated as the emission-ratio at 520 nm over 495 nm. The TR-FRET ratio readout for test compounds was normalized to 0% inhibition corresponding to TR-FRET ratio measured in control wells with no inhibition of the kinase activity and 100% inhibition corresponding to TR-FRET ratio measured in control wells with inhibitor. […] C is the IC50 value and D is the Hill slope coefficient. IC50 estimates were obtained from independent experiment and the logarithmic average was calculated.

LRRK2 WT = target: T2, LRRK2 WT (Homo sapiens, UniProt Q5S007); test: LRRK2 wild-type kinase activity assay (LanthaScreen TR-FRET); type: biochemical; conditions: 1 nM LRRK2 WT, 1.3 mM ATP, 3.5 h at 30° C.; n≥2 tests
T2 construct: comprises residue 970 to 2527 of the full length human wild-type LRRK2 kinase; purchased Invitrogen (Life Technologies Corporation)
Description: as §1

T2 sequence (Q5S007 970-2527): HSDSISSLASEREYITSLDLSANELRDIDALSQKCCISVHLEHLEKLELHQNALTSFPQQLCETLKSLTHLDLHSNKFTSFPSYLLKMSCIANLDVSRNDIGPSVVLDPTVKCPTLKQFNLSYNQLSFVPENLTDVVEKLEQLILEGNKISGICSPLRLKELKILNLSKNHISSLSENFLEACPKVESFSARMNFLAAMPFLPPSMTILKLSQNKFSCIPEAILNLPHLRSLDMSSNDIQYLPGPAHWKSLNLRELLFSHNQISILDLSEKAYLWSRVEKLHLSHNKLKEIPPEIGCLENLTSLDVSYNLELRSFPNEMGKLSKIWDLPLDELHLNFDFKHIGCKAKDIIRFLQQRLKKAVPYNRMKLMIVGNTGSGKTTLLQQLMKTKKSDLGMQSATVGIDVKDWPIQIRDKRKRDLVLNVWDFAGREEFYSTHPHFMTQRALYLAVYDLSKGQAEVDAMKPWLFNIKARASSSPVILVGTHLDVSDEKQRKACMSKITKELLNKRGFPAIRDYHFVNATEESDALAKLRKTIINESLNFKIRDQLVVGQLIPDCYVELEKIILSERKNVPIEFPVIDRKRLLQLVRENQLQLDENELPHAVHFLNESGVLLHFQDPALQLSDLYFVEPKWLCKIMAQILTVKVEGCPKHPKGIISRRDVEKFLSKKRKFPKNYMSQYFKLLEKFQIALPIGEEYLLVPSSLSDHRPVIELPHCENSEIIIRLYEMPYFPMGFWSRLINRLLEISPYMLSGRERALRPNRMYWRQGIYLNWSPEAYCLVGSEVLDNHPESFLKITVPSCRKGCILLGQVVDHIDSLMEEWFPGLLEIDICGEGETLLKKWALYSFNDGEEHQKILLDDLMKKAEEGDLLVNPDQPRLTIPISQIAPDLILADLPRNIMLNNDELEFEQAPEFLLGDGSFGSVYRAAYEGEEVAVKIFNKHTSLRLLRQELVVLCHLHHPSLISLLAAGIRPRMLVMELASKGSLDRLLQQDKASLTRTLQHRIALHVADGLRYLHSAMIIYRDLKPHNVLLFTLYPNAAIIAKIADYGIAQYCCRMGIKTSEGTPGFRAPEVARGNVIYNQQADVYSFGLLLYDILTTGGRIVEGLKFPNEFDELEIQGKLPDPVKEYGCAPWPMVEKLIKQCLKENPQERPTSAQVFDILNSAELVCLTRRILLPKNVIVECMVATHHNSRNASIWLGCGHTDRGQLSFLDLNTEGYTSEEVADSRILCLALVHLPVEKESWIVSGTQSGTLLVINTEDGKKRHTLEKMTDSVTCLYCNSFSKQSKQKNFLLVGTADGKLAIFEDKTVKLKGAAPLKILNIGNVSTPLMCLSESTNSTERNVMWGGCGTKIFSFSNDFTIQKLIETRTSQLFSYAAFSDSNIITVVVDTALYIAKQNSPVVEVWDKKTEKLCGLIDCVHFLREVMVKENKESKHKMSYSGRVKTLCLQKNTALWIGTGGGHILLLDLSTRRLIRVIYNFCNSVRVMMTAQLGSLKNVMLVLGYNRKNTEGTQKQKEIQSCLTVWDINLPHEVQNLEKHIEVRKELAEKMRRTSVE
T1 sequence (Q5S007 970-2527 G2019S): as the sequence (Q5S007 970-2527) above, with G1050S counted along it

Row | SMILES | IC50 (LRRK2 G2019S) [nM] | IC50 (LRRK2 WT) [nM]
1 | Cc1c2c(nn1[C@@H]1CCOC[C@@H]1C)OCCCn1nc(Cl)c3cnc(nc31)N2 (single isomer, unassigned) [Example 21, 8-Chloro-3-methyl-2-((3R,4S) or (3S,4R) or (3S,4S) or (3R,4R)-3-methyltetrahydro-2H-pyran-4-yl)-2,4,12,13-tetrahydro-11H-5,7-(azenometheno)dipyrazolo[3,4-b:5′,1′-g][1]oxa[4,6,8]triazacycloundecine] | 3.7 | 10
2 | Cc1nn2c3nc(ncc13)Nc1c(nn(C3CCOCC3)c1C)OCCC2 [Example 8, 3,8-Dimethyl-2-(tetrahydro-2H-pyran-4-yl)-2,4,12,13-tetrahydro-11H-5,7-(azenometheno)dipyrazolo[3,4-b:5′,1′-g][1]oxa[4,6,8]triazacycloundecine] | 21 | 93
3 | Cc1c2c(nn1C1CCOCC1)OCCCn1nc(C#N)c3cnc(nc31)N2 [Example 9, 3-Methyl-2-(tetrahydro-2H-pyran-4-yl)-2,4,12,13-tetrahydro-11H-5,7-(azenometheno)dipyrazolo[3,4-b:5′,1′-g][1]oxa[4,6,8]triazacycloundecine-8-carbonitrile] | 57 | 110
4 | [2H]C([2H])([2H])c1c2c(nn1C1CCOCC1)OC([2H])([2H])C([2H])([2H])C([2H])([2H])n1nc(Cl)c3cnc(nc31)N2 [Example 35, 8-Chloro-3-(methyl-d3)-2-(tetrahydro-2H-pyran-4-yl)-2,4,12,13-tetrahydro-11H-5,7-(azenometheno)dipyrazolo[3,4-b:5′,1′-g][1]oxa[4,6,8]triazacycloundecine-11,11,12,12,13,13-d6] | 5.3 | 15
5 | Cc1c2c(nn1C1CC3(COC3)C1)OCCCn1nc(Cl)c3cnc(nc31)N2 [Example 34, 8-Chloro-3-methyl-2-(2-oxaspiro[3.3]heptan-6-yl)-2,4,12,13-tetrahydro-11H-5,7-(azenometheno)dipyrazolo[3,4-b:5′,1′-g][1]oxa[4,6,8]triazacycloundecine] | 5.7 | 18
6 | Cc1c2c(nn1C)OCCCn1nc(Cl)c3cnc(nc31)N2 [Example 1, 8-Chloro-2,3-dimethyl-2,4,12,13-tetrahydro-11H-5,7-(azenometheno)dipyrazolo[3,4-b:5′,1′-g][1]oxa[4,6,8]triazacycloundecine] | 18 | 55
7 | Cc1c2c(nn1[C@H]1CCCCOC1)OCCCn1nc(Cl)c3cnc(nc31)N2 (single isomer, unassigned) [Example 28, (+)-(R) or (S)-8-Chloro-3-methyl-2-(oxepan-3-yl)-2,4,12,13-tetrahydro-11H-5,7-(azenometheno)dipyrazolo[3,4-b:5′,1′-g][1]oxa[4,6,8]triazacycloundecine] | 5.3 | 19
8 | [2H]C([2H])([2H])c1c2c(nn1[C@H]1CCOC3(CC3)C1)OCCCn1nc(Cl)c3cnc(nc31)N2 (single isomer, unassigned) [Example 64, (−)-(R) or (S)-8-Chloro-3-(methyl-d3)-2-(4-oxaspiro[2.5]octan-7-yl)-2,4,12,13-tetrahydro-11H-5,7-(azenometheno)dipyrazolo[3,4-b:5′,1′-g][1]oxa[4,6,8]triazacycloundecine] | 5 | 11

More lines, in order of falling IC50 (LRRK2 G2019S), values ahead:

Row | IC50 (LRRK2 G2019S) [nM] | IC50 (LRRK2 WT) [nM] | SMILES
9 | 16 | 60 | FC1(c2c3c(nn2C2CCOCC2)OCCCn2nc(Cl)c4cnc(nc42)N3)CC1 [Example 16, 8-Chloro-3-(1-fluorocyclopropyl)-2-(tetrahydro-2H-pyran-4-yl)-2,4,12,13-tetrahydro-11H-5,7-(azenometheno)dipyrazolo[3,4-b:5′,1′-g][1]oxa[4,6,8]triazacycloundecine]
10 | 7.2 | 23 | Cc1c2c(nn1C1(C#N)CC1)OCCCn1nc(Cl)c3cnc(nc31)N2 [Example 36, 1-(8-Chloro-3-methyl-12,13-dihydro-11H-5,7-(azenometheno)dipyrazolo[3,4-b:5′,1′-g][1]oxa[4,6,8]triazacycloundecin-2(4H)-yl)cyclopropane-1-carbonitrile]
11 | 5.9 | 21 | Cc1c2c(nn1C1CCC(F)(F)CC1)OCCCn1nc(Cl)c3cnc(nc31)N2 [Example 26, 8-Chloro-2-(4,4-difluorocyclohexyl)-3-methyl-2,4,12,13-tetrahydro-11H-5,7-(azenometheno)dipyrazolo[3,4-b:5′,1′-g][1]oxa[4,6,8]triazacycloundecine]
12 | 5.3 | 17 | Cc1c2c(nn1[C@H]1CCOC(C)(C)C1)OCCCn1nc(Cl)c3cnc(nc31)N2 (single isomer, unassigned) [Example 43, (−)-(R) or (S)-8-Chloro-2-(2,2-dimethyltetrahydro-2H-pyran-4-yl)-3-methyl-2,4,12,13-tetrahydro-11H-5,7-(azenometheno)dipyrazolo[3,4-b:5′,1′-g][1]oxa[4,6,8]triazacycloundecine]
13 | 4.7 | 14 | Cc1c2c(nn1[C@@H]1CCOC[C@@H]1C)OCCCn1nc(Cl)c3cnc(nc31)N2 (single isomer, unassigned) [Example 24, 8-Chloro-3-methyl-2-((3R,4S) or (3S,4R) or (3S,4S) or (3R,4R)-3-methyltetrahydro-2H-pyran-4-yl)-2,4,12,13-tetrahydro-11H-5,7-(azenometheno)dipyrazolo[3,4-b:5′,1′-g][1]oxa[4,6,8]triazacycloundecine]
14 | 4.7 | 9.4 | Cc1c2c(nn1CC1CCOCC1)OCCCn1nc(Cl)c3cnc(nc31)N2 [Example 49, 8-Chloro-3-methyl-2-((tetrahydro-2H-pyran-4-yl)methyl)-2,4,12,13-tetrahydro-11H-5,7-(azenometheno)dipyrazolo[3,4-b:5′,1′-g][1]oxa[4,6,8]triazacycloundecine]
15 | 4.6 | 14 | Cc1c2c(nn1CC13CC(CO1)C3)OCCCn1nc(Cl)c3cnc(nc31)N2 [Example 11, 2-((2-Oxabicyclo[2.1.1]hexan-1-yl)methyl)-8-chloro-3-methyl-2,4,12,13-tetrahydro-11H-5,7-(azenometheno)dipyrazolo[3,4-b:5′,1′-g][1]oxa[4,6,8]triazacycloundecine]
16 | 4 | 11 | [2H]C([2H])([2H])c1c2c(nn1[C@@H]1CCOC[C@H]1F)OCCCn1nc(Cl)c3cnc(nc31)N2 (single isomer, unassigned) [Example 63, (+)-8-Chloro-2-((3R,4S) or (3S,4R)-3-fluorotetrahydro-2H-pyran-4-yl)-3-(methyl-d3)-2,4,12,13-tetrahydro-11H-5,7-(azenometheno)dipyrazolo[3,4-b:5′,1′-g][1]oxa[4,6,8]triazacycloundecine]
17 | 3.6 | 13 | [2H]C1([2H])CCOc2nn(C3CCOCC3)c(C)c2Nc2ncc3c(Cl)nn1c3n2 [Example 45, 8-Chloro-3-methyl-2-(tetrahydro-2H-pyran-4-yl)-2,4,12,13-tetrahydro-11H-5,7-(azenometheno)dipyrazolo[3,4-b:5′,1′-g][1]oxa[4,6,8]triazacycloundecine-11,11-d2]
18 | 3.5 | 10 | Cc1c2c(nn1[C@@H]1CCOC[C@@H]1C)OCCCn1nc(Cl)c3cnc(nc31)N2 (single isomer, unassigned) [Example 22, 8-Chloro-3-methyl-2-((3R,4S) or (3S,4R) or (3S,4S) or (3R,4R)-3-methyltetrahydro-2H-pyran-4-yl)-2,4,12,13-tetrahydro-11H-5,7-(azenometheno)dipyrazolo[3,4-b:5′,1′-g][1]oxa[4,6,8]triazacycloundecine]
19 | 1.7 | 4.8 | [2H]C([2H])([2H])c1c2c(nn1[C@H]1CCOC3(CC3)C1)OCCCn1nc(Cl)c3cnc(nc31)N2 (single isomer, unassigned) [Example 65, (+)-(R) or (S)-8-Chloro-3-(methyl-d3)-2-(4-oxaspiro[2.5]octan-7-yl)-2,4,12,13-tetrahydro-11H-5,7-(azenometheno)dipyrazolo[3,4-b:5′,1′-g][1]oxa[4,6,8]triazacycloundecine]
20 | 0.88 | 2.6 | Cc1c2c(nn1[C@@H]1CCOC3(CC3)C1)OCCCn1nc(Cl)c3cnc(nc31)N2 (single isomer, unassigned) [Example 54, (−)-(R) or (S)-8-Chloro-3-methyl-2-(4-oxaspiro[2.5]octan-7-yl)-2,4,12,13-tetrahydro-11H-5,7-(azenometheno)dipyrazolo[3,4-b:5′,1′-g][1]oxa[4,6,8]triazacycloundecine]
